Measured values published in PubChem BioAssay (NCI).
Where “and” joins values, the source holds several entries; their conditions need not be identical. Equal values may be shown once.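 Protocol summary: plate cells (96-well), add compound at 5 concentrations, incubate 48 h, interpolate endpoints linearly. Here, GI50 denotes the concentration required for 50% inhibition of growth. At the TGI there is no net growth.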

What was measured:
Assay in all cases: inhibition of tumour cell growth, NCI panel, 48 h
SNB-75 CNS = tested on: SNB-75 CNS
IGROV1 ovarian = tested on: IGROV1 ovarian
SW-620 colon = tested on: SW-620 colon
786-0 renal = tested on: 786-0 renal
LOX IMVI melanoma = tested on: LOX IMVI melanoma
EKVX NSCLC = tested on: EKVX NSCLC
NCI-H226 lung = tested on: NCI-H226 lung
PC-3 prostate = tested on: PC-3 prostate
NCI/ADR-RES ovarian = tested on: NCI/ADR-RES ovarian
T-47D breast = tested on: T-47D breast

SMILES | TGI (SNB-75 CNS) [µM] | TGI (IGROV1 ovarian) | TGI (SW-620 colon) | TGI (786-0 renal) | TGI (LOX IMVI melanoma) | TGI (EKVX NSCLC) | TGI (NCI-H226 lung) | GI50 (PC-3 prostate) [µM] | TGI (PC-3 prostate) | GI50 (NCI-H226 lung) | GI50 (IGROV1 ovarian) | GI50 (NCI/ADR-RES ovarian) | TGI (NCI/ADR-RES ovarian) | GI50 (SW-620 colon) | GI50 (LOX IMVI melanoma) | GI50 (EKVX NSCLC) | GI50 (SNB-75 CNS) [µM] | GI50 (786-0 renal) | GI50 (T-47D breast) [µM] | TGI (T-47D breast) [µM]
CC1(C)CCC(Sc2ccccc2)O1 (centres undefined) | > 100 | > 100 µM | > 100 µM | > 100 µM | > 100 µM | > 100 µM |  |  |  |  |  |  |  |  |  |  |  |  |  | 
CC(C)(C)c1cc(CCC(=O)Nc2ccc(Cl)cc2)[nH]c(=S)n1 | > 100 | > 100 µM | > 100 µM | > 100 µM | > 100 µM | > 100 µM | > 100 µM |  |  |  |  |  |  |  |  |  |  |  |  | 
COC(=O)C(=O)Cc1nc2ccccc2s1 | > 100 | > 100 µM | > 100 µM | > 100 µM | > 100 µM | > 100 µM | > 100 µM |  |  |  |  |  |  |  |  |  |  |  |  | 
CCCCC1=CSC(c2ccccc2)=C(c2ccccc2)S1 | > 100 | > 100 µM | > 100 µM | > 100 µM | > 100 µM | > 100 µM | > 100 µM |  |  |  |  |  |  |  |  |  |  |  |  | 
COC1=C(N)C(=O)c2nc(-c3nc(C(=O)O)c(C)c(-c4ccc(OC)c(OC)c4O)c3N)ccc2C1=O |  | 0.0196 µM and 0.125 µM and 0.0589 µM | 0.00424 µM and 0.0268 µM and 0.0181 µM | 0.00261 µM and 0.0217 µM and < 0.01 µM |  | 0.0349 µM and 0.0896 µM |  | 0.0298 | 0.203 µM and 0.0292 µM and 0.0228 µM | 0.00126 µM and 0.00319 µM | 0.00237 µM and 0.0223 µM and 0.0183 µM | 0.00121 µM and 0.00809 µM | 0.0151 µM and 0.094 µM and 0.0169 µM | 0.00124 µM and 0.00653 µM | 0.024 µM and 0.00755 µM | 0.00938 µM and 0.0215 µM |  |  |  | 
O=C1c2ccccc2C(=O)c2cc3c(cc21)CS(=O)C3 | > 100 | > 100 µM | > 100 µM | > 100 µM | > 100 µM | > 100 µM |  |  |  |  |  |  |  |  |  |  |  |  |  | 
Cn1c(CBr)nc2c1C(=O)c1nc(CBr)[nH]c(=O)c1C2=O |  | > 100 µM | > 100 µM | > 100 µM | > 100 µM | > 100 µM |  |  |  |  |  |  |  |  |  |  |  |  |  | 
COC1C2C[C@@H](O)CCC2C(C(=O)OCCl)C[C@H]1O (some centres undefined) | > 100 | > 100 µM | > 100 µM | > 100 µM |  |  | > 100 µM |  |  |  |  |  |  |  |  |  |  |  |  | 
COC(=O)CCSC(=O)Nc1ccc(N=Nc2ccccc2)cc1 | > 100 | > 100 µM | > 100 µM | > 100 µM | > 100 µM | > 100 µM | > 100 µM |  |  |  |  |  |  |  |  |  |  |  |  | 
CCOC(=O)c1c(-c2ccccc2)[n+](=O)c2cc(Cl)c(Cl)cc2n1[O-] | 30.2 | > 100 µM | 37.1 µM | 2.87 µM | 2.91 µM | 34.5 µM |  | 0.769 | 62.1 µM |  | 1.63 µM | 18 µM | 44.7 µM | 16.5 µM | 1.56 µM | 17.6 µM | 8.7 | 1.54 µM |  | 
COc1cc([N+](=O)[O-])c(OC)cc1-c1nc2sc(C)c(C)n2c1/C(N)=N/C(=N)N | > 100 | > 100 µM | > 100 µM | > 100 µM |  | > 100 µM |  | > 100 | > 100 µM |  | > 100 µM | > 100 µM | > 100 µM | 9.8 µM |  | > 100 µM | > 100 | > 100 µM |  | 
CN=c1ss/c(=N\C(=S)N(C)C)n1C | > 100 | > 100 µM | > 100 µM | > 100 µM |  | > 100 µM | > 100 µM |  |  |  |  |  |  |  |  |  |  |  |  | 
NC1NC=NC2C1N=CN2C1OC(CO)C2[O][Sn][O]C21 (centres undefined) | > 100 | > 100 µM | > 100 µM | > 100 µM | > 100 µM | > 100 µM | > 100 µM |  |  | > 100 µM | > 100 µM |  |  | > 100 µM | > 100 µM | > 100 µM | > 100 | > 100 µM |  | 
CCOC(=O)C(C)(NC(=O)c1ccc(NCc2ccc3nc(NC(=O)c4ccccc4)nc(NC(=O)c4ccccc4)c3c2)cc1)C(=O)OCC | 7 | 63.3 µM | > 100 µM | 13.3 µM | 34.1 µM | 39.5 µM | 28.4 µM |  |  |  |  |  |  |  |  |  |  |  |  | 
O=[N+]([O-])c1ccc(C2=Nc3ccccc3S(=O)C(c3ccccc3)C2)cc1 (centres undefined) | 53.3 | 36.9 µM | 52.8 µM | 35.1 µM | 29.3 µM | 45.1 µM | 49.4 µM |  |  |  |  |  |  |  |  |  |  |  |  | 
COc1cc(C2c3cc4c(cc3[C@@H](NCCN(C)C)C3COC(=O)[C@H]23)OCO4)cc(OC)c1O (some centres undefined) | 0.674 | 2.39 µM and 3.57 µM | 3.51 µM and 3.71 µM | 0.457 µM and 1.1 µM | 0.69 µM and 1.29 µM | 5.08 µM and 11 µM | 0.0481 µM and 0.152 µM |  |  |  | 0.391 µM and 1.06 µM |  |  |  | 0.0366 µM and 0.119 µM | 1.56 µM and 3.29 µM |  | 0.0355 µM and 0.132 µM |  | 
COc1cccc(/C=C/C(=O)c2ccc3cc(OC)ccc3c2)c1 | 14.6 | 21.7 µM | 20.5 µM | 19.2 µM | 14.5 µM | 40.8 µM |  | 18.3 | > 50 µM |  | 4.05 µM |  |  | 7.03 µM | 2.92 µM | 13 µM | 0.066 | 10.9 µM | 10.7 | 25.7
